Data on 22 molecules can be found in ChEMBL document CHEMBL1909046, “DrugMatrix in vitro pharmacology data”.

The target of data set [1] is Cytochrome P450 2D6 (Homo sapiens, UniProt P10635). The following applies: bti-tn-5b1-4. Further: in other assays of this panel Not Active means under 50% inhibition at 10 µM.
Data set [2] is described as follows: DRUGMATRIX: Interleukin IL-1 radioligand binding (ligand: [125I] interleukin 1beta). The format is cell membranes, Membrane. The following applies: nih3t3; Not Active = under 50% inhibition at 10 µM.
A short description of data set [3]: DRUGMATRIX: Calcium Channel Type L, Benzothiazepine radioligand binding (ligand: [3H] Diltiazem). The format is cell membranes, Rattus norvegicus, Wistar, Brain, Membrane. The following applies: Not Active = under 50% inhibition at 10 µM.
Data set [4] can be described thus: DRUGMATRIX: GABAA, Flunitrazepam, Central radioligand binding (ligand: [3H] Flunitrazepam). The following applies: Not Active = under 50% inhibition at 10 µM. The format is cell membranes, Rattus norvegicus, Wistar, Brain, Membrane.
Data set [5] can be described thus: DRUGMATRIX: Atrial Natriuretic Factor (ANF) radioligand binding (ligand: [125I] ANF (rat)). The format is cell membranes, Cavia porcellus, Dunkin-Hartley, Adrenal gland, Membrane. The following applies: Not Active = under 50% inhibition at 10 µM.
Data set [6] is described as follows: DRUGMATRIX: Calcium Channel Type L, Dihydropyridine radioligand binding (ligand: [3H] Nitrendipine). The following applies: Not Active = under 50% inhibition at 10 µM. The format is cell membranes, Rattus norvegicus, Wistar, Cerebral cortex, Membrane.
Data set [7] has as its target Beta-1 adrenergic receptor (Homo sapiens, UniProt P08588). Put plainly: DRUGMATRIX: Adrenergic beta1 radioligand binding (ligand: [125I] Cyanopindolol). The following applies: cho-k1; Not Active = under 50% inhibition at 10 µM. The format is cell membranes, CHO-K1, Membrane.

Cytochrome P450 2D6, sequence (P10635 whole entry): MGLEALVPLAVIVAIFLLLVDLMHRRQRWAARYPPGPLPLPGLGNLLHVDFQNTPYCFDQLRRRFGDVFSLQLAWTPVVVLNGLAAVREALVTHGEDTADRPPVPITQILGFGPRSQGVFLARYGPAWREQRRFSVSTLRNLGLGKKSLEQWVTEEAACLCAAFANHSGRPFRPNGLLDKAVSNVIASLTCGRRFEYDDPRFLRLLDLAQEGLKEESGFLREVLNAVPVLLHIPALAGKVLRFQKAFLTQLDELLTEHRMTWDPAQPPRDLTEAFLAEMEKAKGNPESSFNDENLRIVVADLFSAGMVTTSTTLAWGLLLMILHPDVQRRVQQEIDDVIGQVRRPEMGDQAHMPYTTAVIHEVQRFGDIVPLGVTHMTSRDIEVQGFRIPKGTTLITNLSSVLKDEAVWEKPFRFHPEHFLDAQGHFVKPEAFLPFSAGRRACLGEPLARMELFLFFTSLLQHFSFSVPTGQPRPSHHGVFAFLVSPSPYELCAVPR
Beta-1 adrenergic receptor, sequence (P08588 whole entry): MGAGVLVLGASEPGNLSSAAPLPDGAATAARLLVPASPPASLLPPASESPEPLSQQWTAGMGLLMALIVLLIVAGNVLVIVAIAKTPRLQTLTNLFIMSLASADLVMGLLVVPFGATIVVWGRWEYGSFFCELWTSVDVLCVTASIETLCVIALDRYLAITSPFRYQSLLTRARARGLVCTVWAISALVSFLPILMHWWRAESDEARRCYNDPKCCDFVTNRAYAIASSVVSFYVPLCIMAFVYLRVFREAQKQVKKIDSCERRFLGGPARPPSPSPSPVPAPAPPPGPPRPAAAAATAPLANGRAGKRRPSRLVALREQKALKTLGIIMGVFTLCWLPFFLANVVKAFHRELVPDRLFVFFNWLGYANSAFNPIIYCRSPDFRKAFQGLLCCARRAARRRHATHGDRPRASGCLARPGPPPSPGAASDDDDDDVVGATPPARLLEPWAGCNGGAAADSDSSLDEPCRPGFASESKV

Turning to `CCCCC(=O)N(Cc1ccc(-c2ccccc2-c2nnn[nH]2)cc1)[C@H](C(=O)O)C(C)C`, the IC50 result in data set [1], in data set [2], in data set [3], in data set [4], in data set [5] and in data set [6] was “Not Active” throughout. The half-inhibitory concentration (IC50) result in data set [7] is recorded as “Not Active”. In addition, the Ki entry in data set [1], in data set [2], in data set [3], in data set [4], in data set [5] and in data set [6] was “Not Active” in each case.
As for `O=C(O)COc1ccc(C(=O)c2cccs2)c(Cl)c1Cl`, the IC50 result in data set [1], in data set [2], in data set [3], in data set [4], in data set [5] and in data set [6] was “Not Active” in each case. Further, the concentration for half-maximal inhibition (IC50) result in data set [7] is given as “Not Active”. Besides, the inhibition constant (Ki) result in data set [1], in data set [2], in data set [3], in data set [4], in data set [5] and in data set [6] was “Not Active” in each case.
As to `CN1[C@@H]2CC[C@H]1C[C@@H](OC(c1ccccc1)c1ccccc1)C2` [BENZTROPINE], in data set [1], the IC50 result is listed as “Not Active” and the Ki result is “Not Active”.
Regarding `C[C@@](Cc1ccc(O)c(O)c1)(NN)C(=O)O.O` [CARBIDOPA], the 50% inhibitory concentration (IC50) entry in data set [1], in data set [2], in data set [3], in data set [4], in data set [5] and in data set [6] was “Not Active” throughout. Also, in data set [7], the concentration for half-maximal inhibition (IC50) entry was “Not Active”. The Ki result in data set [1], in data set [2], in data set [3], in data set [4], in data set [5] and in data set [6] was “Not Active” throughout.
As to `CN1CCN(C2=Nc3cc(Cl)ccc3Nc3ccccc32)CC1` [CLOZAPINE], in data set [1], the 50% inhibitory concentration (IC50) entry is “Not Active” and the inhibition constant Ki entry is listed as “Not Active”. In addition, the 50% inhibitory concentration (IC50) entry in data set [7] is “Not Active”.
`CC(C)NC[C@@H](O)COc1cccc2ccccc12` [DEXPROPRANOLOL]: in data set [1], the IC50 entry is recorded as “Not Active” and the Ki entry is given as “Not Active”.
Consider `CC(C)NC[C@H](O)COc1cccc2ccccc12` [LEVOPROPRANOLOL], for which, in data set [1], the IC50 entry was “Not Active” and the Ki entry is recorded as “Not Active”.
Consider `O=C(O)CCCCC1CCSS1` (stereo not drawn) [LIPOIC ACID, ALPHA], for which the IC50 entry in data set [1], in data set [2], in data set [3], in data set [4], in data set [5] and in data set [6] was “Not Active” each time. The IC50 entry in data set [7] was “Not Active”. Besides, the inhibition constant Ki result in data set [1], in data set [2], in data set [3], in data set [4], in data set [5] and in data set [6] was “Not Active” throughout.
As to `Oc1ccc2c3c1O[C@H]1[C@@H](O)CC[C@@]4(O)[C@@H](C2)N(CC2CCC2)CC[C@]314` [NALBUPHINE], the half-maximal inhibitory concentration (IC50) result in data set [7] was “Not Active”.
Take `C[C@]12C=CC(=O)C=C1CC[C@@H]1[C@@H]2C(=O)C[C@@]2(C)[C@H]1CC[C@]2(O)C(=O)CO` [PREDNISONE]: the IC50 entry in data set [2], in data set [3], in data set [4], in data set [5], in data set [6] and in data set [7] was “Not Active” throughout. Also, the Ki result in data set [2], in data set [3], in data set [4], in data set [5] and in data set [6] was “Not Active” throughout.
For `OCCOCCN1CCN(C2=Nc3ccccc3Sc3ccccc32)CC1` [QUETIAPINE], the IC50 result in data set [1] and in data set [7] was “Not Active” in each case. Moreover, in data set [1], the inhibition constant Ki result is on record as “Not Active”.
With `COC(=O)[C@H]1[C@H]2C[C@@H]3c4[nH]c5cc(OC)ccc5c4CCN3C[C@H]2C[C@@H](OC(=O)c2cc(OC)c(OC)c(OC)c2)[C@@H]1OC` [RESERPINE], the IC50 result in data set [1] was “Not Active”; in data set [2], “Not Active”; in data set [3] (read-out: IC50) it was 3710 nM; in data set [4], “Not Active”; in data set [5] it was “Not Active”; in data set [6] (read-out: IC50), 821 nM. Besides, the IC50 entry in data set [7] is “Not Active”. For the same molecule, the inhibition constant (Ki) entry was “Not Active” in data set [1]; “Not Active” in data set [2]; 3300 nM in data set [3] (read-out: Ki); “Not Active” in data set [4]; “Not Active” in data set [5]; 528 nM in data set [6] (read-out: Ki).
As to `O=C(O)c1ccccc1O` [SALICYLIC ACID], the half-maximal inhibitory concentration (IC50) result in data set [1], in data set [2], in data set [3], in data set [4], in data set [5] and in data set [6] was “Not Active” in each case. Besides, the Ki result in data set [1], in data set [2], in data set [3], in data set [4], in data set [5] and in data set [6] was “Not Active” each time.
As for `C[S+]([O-])c1ccc(-c2nc(-c3ccncc3)c(-c3ccc(F)cc3)[nH]2)cc1` (stereo not drawn) [SB-203580], the IC50 entry in data set [7] was “Not Active”.
As for `CC1CCC(NC(=O)N(CCCl)N=O)CC1` (stereo not drawn) [SEMUSTINE], the IC50 entry in data set [1], in data set [2], in data set [3], in data set [4], in data set [5] and in data set [6] was “Not Active” each time. In data set [7], the IC50 entry is on record as “Not Active”. The Ki entry in data set [1], in data set [2], in data set [3], in data set [4], in data set [5] and in data set [6] was “Not Active” throughout.
With `O=C1C[C@@H]2OCC=C3CN4CC[C@]56c7ccccc7N1[C@H]5[C@H]2[C@H]3C[C@H]46` [STRYCHNINE], the 50% inhibitory concentration (IC50) result in data set [1], in data set [2], in data set [3], in data set [4], in data set [5] and in data set [6] was “Not Active” each time. Also, the Ki entry in data set [1], in data set [2], in data set [3], in data set [4], in data set [5] and in data set [6] was “Not Active” throughout.
Regarding `C[N+](C)(C)CCOC(=O)CCC(=O)OCC[N+](C)(C)C.[Cl-].[Cl-]` [SUCCINYLCHOLINE CHLORIDE], the IC50 entry in data set [1], in data set [2], in data set [3], in data set [4], in data set [5] and in data set [6] was “Not Active” throughout. In addition, the half-maximal inhibitory concentration (IC50) entry in data set [7] is given as “Not Active”. Moreover, the Ki result in data set [1], in data set [2], in data set [3], in data set [4], in data set [5] and in data set [6] was “Not Active” each time.
Consider `Nc1ccc(S(=O)(=O)NC(=O)c2ccccc2)cc1` [SULFABENZAMIDE], for which the IC50 entry in data set [1], in data set [2], in data set [3], in data set [4], in data set [5] and in data set [6] was “Not Active” each time. In addition, the IC50 result in data set [7] is “Not Active”. In addition, the inhibitory constant (Ki) result in data set [1], in data set [2], in data set [3], in data set [4], in data set [5] and in data set [6] was “Not Active” in each case.
With `CCCCCCCCNC(C)C(O)c1ccc(SC(C)C)cc1` (stereo not drawn) [SULOCTIDIL], the IC50 entry in data set [1] is “Not Active”; in data set [3] (read-out: IC50), 171 nM; in data set [4], “Not Active”; in data set [6] (read-out: IC50) it was 260 nM. In addition, the Ki entry in data set [1] is “Not Active”; in data set [3] (read-out: Ki) it was 152 nM; in data set [4], “Not Active”; in data set [6] (read-out: Ki), 167 nM.
As to `O=c1[nH]c(=O)n(C2CCCO2)cc1F` (stereo not drawn) [TEGAFUR], the half-maximal inhibitory concentration (IC50) result in data set [1], in data set [2], in data set [3], in data set [4], in data set [5] and in data set [6] was “Not Active” in each case. For the same molecule, the IC50 result in data set [7] is “Not Active”. Further, the inhibition constant (Ki) entry in data set [1], in data set [2], in data set [3], in data set [4], in data set [5] and in data set [6] was “Not Active” each time.
On to `CC(=N)S` [THIOACETAMIDE], for which the IC50 result in data set [1], in data set [2], in data set [3], in data set [4], in data set [5] and in data set [6] was “Not Active” throughout. The half-maximal inhibitory concentration (IC50) result in data set [7] is given as “Not Active”. Further, the Ki entry in data set [1], in data set [2], in data set [3], in data set [4], in data set [5] and in data set [6] was “Not Active” in each case.
With `CN1CCN(CCCN2c3ccccc3Sc3ccc(C(F)(F)F)cc32)CC1` [TRIFLUOPERAZINE], the half-maximal inhibitory concentration (IC50) entry in data set [2], in data set [3], in data set [4], in data set [5], in data set [6] and in data set [7] was “Not Active” each time. Further, the Ki result in data set [2], in data set [3], in data set [4], in data set [5] and in data set [6] was “Not Active” each time.

One may read the IC50 as the midpoint of a concentration-inhibition curve. For orientation: Ki means the dissociation constant of the complex between target and ligand, obtained from inhibition or displacement.
